Experimental data from patent publication US4404215A, “Piperidyl phenyl trifluoroethanols” (Science Union et Cie, priority 1978, dated 1983).
Each block holds one compound with its values, some of them ahead of it.

How the values were obtained:
[1] = solubility; format: physicochemical; conditions: for solubility in organic solvents: most of the organic solvents
[2] = nephrotoxicity and hepatotoxicity context; cited from earlier work
[3] = antipyretic effect, baker yeast hyperthermia (LOUX); format: in vivo; conditions: rats; paracetamol 50 to 500 mg
Method: The antipyretic effect of the compounds of formula I has been determined according to the method described by J. J. LOUX and cowork. Toxicol. and Appl. Pharmacol. 22 (1972) 672. According to this method a hyperthermic crisis occurs in the rats after subcutaneous injection of baker yeast.
The compounds to be tested are administered orally in a suspension of an arabic gum solution 19 hours after the injection of yeast.
The body temperatures are measured from 1 to 5 hours after the ingestion of the compounds of formula I by means of a thermistor. The dosages tested range from 25 to 200 mg/kg.
The increase of body temperature in the control rats is about 2° in comparison of that of the untreated rats. The animals which receive the compounds of formula I show only a moderate increase of temperature, mainly 3 and 4 hours after the ingestion of the tested compound. The highest dosages (150 and 200 mg/kg) caused a return to the initial temperature in the treated animals.
In similar experimental conditions, batches of rats receive paracetamol at dose ranging from 50 to 500 mg.

solubility in ethanol ([1]; ethanol): soluble
solubility in methanol ([1]; methanol): soluble
solubility in water [1]: insoluble
SMILES: CC(=O)Nc1ccc(C(O)C(F)(F)F)cc1 (centres unmarked) [Example 1, 1-(4-acetamidophenyl) 2,2,2-trifluoroethanol]

solubility in organic solvents [1]: soluble
solubility in water [1]: insoluble
SMILES: CCOC(c1ccc(NC(C)=O)cc1)C(F)(F)F (centres unmarked) [Example 10, 1-(4-acetamidophenyl) 1-ethoxy 2,2,2-trifluoroethane]

Continued, compound first:

SMILES: CCCCCCCCCCCCCCCCNc1ccc(C(O)C(F)(F)F)cc1 (racemic) [Example 8, 1-(4-nhexadecylaminophenyl) 2,2,2-trifluoroethanol]
solubility in dilute solutions of acids ([1]; hydrochloric acid or acetic acid): soluble

SMILES: CC(C)C(=O)Nc1ccc(C(O)C(F)(F)F)cc1 (centres unmarked) [Example 2, 1-(4-isobutyramidophenyl) 2,2,2-trifluoroethanol]
solubility in organic solvents [1]: soluble
solubility in water [1]: insoluble

SMILES: OC(c1ccc(NC2CCN(CCc3ccccc3)CC2)cc1)C(F)(F)F (centres unmarked) [Example 9, 4-[4-(2,2,2-trifluoro 1-hydroxyethyl)phenylamino] 1-(2-phenylethyl) piperidine]
solubility in N/10 hydrochloric acid ([1]; just calculated amount of N/10 hydrochloric acid): soluble

SMILES: CC(=O)Nc1ccc(O)cc1 [paracetamol]
toxicity [2]: well-known toxicity
useful dose which curbs significantly the increase of temperature, relative to compounds of formula I [3]: about twice of that of the compounds of formula I
